Where two headings read alike, the source gives them in different places. Where a SMILES comes first, the peptide text is derived from it. [ ]: non-standard residue; d: D form. The star is where a group is joined. Dolaproine = CO[C@@H]([C@@H]1CCCN1)[C@@H](C)C(=O)O; Dil = CC[C@H](C)[C@H](NC)[C@@H](CC(=O)O)OC; X1 = C[C@@H](N*)[C@@H](O)c1ccccc1; NMeV = CN[C@H](C(=O)O)C(C)C
How the values were obtained:
[1] = Stability of prodrugs in PBS at 37° C., LC-MS; assay type: physicochemical; conditions: buffer
Protocol: Prodrugs were prepared to concentrations of 10 μM in PBS (pH 7.4, <2% DMF) and incubated at 37° C. to determine the relative stability under physiological conditions (FIG. 14). Aliquots of these solutions were removed after varying time intervals and analyzed via LC-MS on a Waters 3100 Mass Detector with an Xterra MS C18 Column to measure the amount of each prodrug remaining in solution. All measurements were made in triplicate and analyzed in Graphpad Prism to determine the half-lives (991, 257, and 2252 hours were determined for compounds 8, 9, and 10 respectively).

[2] = test system: Bone marrow-derived macrophages (BMDM) from IL12-eYFP reporter mice; experiment: Cellular immunostimulation of BMDM (p-NFkB and IL12-eYFP fluorescence); assay type: cell-based; conditions: 100 nM, 48 hours
Protocol: Bone marrow-derived macrophages (BMDM) were generated from IL12-eYFP reporter mice by dissecting the femurs, flushing out the bone marrow, and culturing isolate with M-CSF supplemented growth media (Luthria G, et al. Nat Commun. 2020; 11:3521]. BMDM were plated in a 96 well plate at a concentration of 5,000 cells per well. These wells were then treated with either free gardiquimod, pATFB-SIL-Mal-Gard (13), or prodrug 13 that had been treated with 10 μM tris(2-carboxyethyl) phosphine) to chemically release the free gardiquimod (all drugs at a concentration of 100 nM). The cells were then incubated for 48 hours then fixed with 4% PFA and stained with Phospho-NF-κB p65 (Ser536) (93H1) Rabbit mAb and AF647 Goat anti-Rabbit IgG. Images were captured on a modified BX63 (Olympus) inverted microscopy system equipped with an environmental chamber and robotic stage, using excitation/emission wavelengths of 513/527 and 640/670 for eYFP and Cy5, respectively. The images were then quantified using ImageJ software (NIH, USA) to determine relative protein expression.

[3] = test system: 8505c (human anaplastic thyroid cancer); experiment: Cytotoxicity assay, 72 hour incubation, PrestoBlue (resazurin-based); assay type: cell-based; conditions: for IC50: Homo sapiens
Protocol: Experiments with cancer cells were performed to assess the degree to which the disclosed linker strategy shields biological activity of the drug payload under un-irradiated conditions, and restore drug activity once irradiated.
All cells were routinely evaluated for mycoplasma contamination and cultured following provider guidelines using 10% FBS (Bio-Techne Sales), 100 IU mL-1 penicillin, 100 μg mL-1 streptomycin (Invitrogen), with incubation at 37° C. and 5% CO2. Cytotoxicity experiments were performed by seeding 5,000 cells per well overnight in a 96-well plate (Corning) before the addition of each drug/conjugate. Empty wells with only media or vehicle-treated cells were used as controls. After addition of the corresponding drugs and a 72 hour incubation, the number of live cells was determined by PrestoBlue (ThermoFisher, USA) staining according to the provider's protocols.

[4] = Drug payload stability after X-ray irradiation, LC/MS chromatograph analysis; assay type: physicochemical; conditions: 8 Gy X-ray irradiation, 100 uM in PBS, degassed
Protocol: FIG. 5. Illustrates drug payload stability after X-ray irradiation. […] Both drug solutions were prepared to a concentration of 100 uM in PBS and analyzed before and after irradiation. MMAE chromatographs were obtained via ELSD and DOX chromatographs were obtained via UV absorbance scan (200-800 nm).
No difference in cleavage efficiency was found between gamma irradiation from a sealed 137Cs source (primarily 662 keV photons at a dose rate of roughly 0.5 Gy/min), and X-ray irradiation (from a 4000 W tube generating 320 keV photons at 3 Gy/min), and little background release was observed under un-irradiated conditions (FIG. 4).

8505c cell line = experiment: Subcellular localization of DOX by intrinsic fluorescence imaging; assay type: cell-based, human; conditions: ATC cells (8505c)
Protocol: Subcellular localization of DOX in the 8505c cell line was measured using a modified BX63 (Olympus) inverted microscopy system equipped with an environmental chamber and robotic stage. DOX images were collected using a 40× air objective (PLAPO 40×/0.95 numerical aperture), with excitation and emission wavelengths of 489 nm and 508 nm, respectively. All images were processed using cellSens Dimension 3.1.1 (Olympus, USA) and ImageJ 1.53k (NIH, USA) software. Nuclear to cytoplasm fluorescence ratios were calculated and plotted using Excel (Microsoft) and Prism (GraphPad). 20 μM concentration of free (or released) DOX was used, and unirradiated prodrug used the same total (caged and uncaged) DOX concentration as used in the irradiated sample. Following treatment for 72 hours, live cells were immediately imaged by confocal microscopy.

[5] = 10 μM in PBS (pH 7.4, <2% DMF), 37° C., read-out: half-life (converted)

Q: For `CC[C@@H](C)[C@H]([C@H](CC(=O)N1CCC[C@@H]1[C@@H](OC)C(C)C(=O)N[C@@H](C)[C@H](O)c1ccccc1)OC)N(C)C(=O)[C@H](CC(=O)[C@H](C(C)C)N(C)C(=O)OC(C(=O)OC)c1ccc(NC(=O)OCc2c(F)c(F)c(N=[N+]=[N-])c(F)c2F)cc1)C(C)C` (some centres unmarked) [Compound 8], which half-life at 10 μM [1, 5] is on record?
A: Its half-life at 10 μM is 41.3 days.

Q: For `COC(=O)C(OC(=O)N[C@H]1C[C@H](O[C@H]2C[C@](O)(C(=O)CO)Cc3c(O)c4c(c(O)c32)C(=O)c2c(OC)cccc2C4=O)O[C@@H](C)[C@H]1O)c1ccc(NC(=O)OCc2c(F)c(F)c(N=[N+]=[N-])c(F)c2F)cc1` (some centres unmarked) [Compound 9], which half-life at 10 μM [1, 5] is on record?
A: The half-life at 10 μM was 10.7 days.

Q: What does the source list for `CCN(Cc1nc2c(N)nc3ccccc3c2n1CC(C)(C)O)C(=O)OC(C(=O)OC)c1ccc(NC(=O)OCc2c(F)c(F)c(N=[N+]=[N-])c(F)c2F)cc1` (centres unmarked) [Compound 10]?
A: immunostimulatory behavior compared to free gardiquimod, caged [2]: attenuated immunostimulatory behavior; immunostimulatory activity after chemical uncaging ([2]; prodrug treated with 10 μM TCEP): restores the immunostimulatory activity; half-life at 10 μM ([1]; pH 7.4): 93.8 days

Q: With `COC(=O)C(OC(=O)N[C@@H]1C[C@@H](O[C@H]2C[C@](O)(C(=O)CO)Cc3c(O)c4c(c(O)c32)C(=O)c2c(OC)cccc2C4=O)O[C@H](C)[C@H]1O)c1ccc(NC(=O)OCc2cc(OC)cc(OC)c2)cc1` (some centres unmarked) [DMBA-SIL-DOX] as the compound, how does the IC50 ([3]; 8505C, light or radiation study, read-out: concentration at which drug inhibited 50% of ATC cell growth) read?
A: The IC50 was over 10000 nM.

Q: What about the “fold higher IC50 than that observed for the parent drug” value ([3]; un-irradiated, 8505c ATC cells) of the same compound?
A: Its value is “roughly 100 fold”.

Q: Which “effect of irradiation on the drug payload itself” value [4] does the source give for `CC[C@H](C)[C@@H]([C@@H](CC(=O)N1CCC[C@H]1[C@H](OC)[C@@H](C)C(=O)N[C@H](C)[C@@H](O)c1ccccc1)OC)N(C)C(=O)[C@@H](NC(=O)[C@@H](NC)C(C)C)C(C)C` [MMAE, monomethyl auristatin E] (H-[NMeV]V[Dil][Dolaproine]-X1) here?
A: The value was “Neither MMAE nor doxorubicin themselves were substantially affected”.

Q: For `COc1cccc2c1C(=O)c1c(O)c3c(c(O)c1C2=O)C[C@@](O)(C(=O)CO)C[C@@H]3O[C@H]1C[C@H](N)[C@H](O)[C@H](C)O1` [doxorubicin], which IC50 ([3]; 8505c ATC cells, read-out: IC50 of parent drug) is on record?
A: Its IC50 is 94 nM.

Q: What about the “subcellular distribution of DOX fluorescence, free drug” value (8505c cell line) of the same compound?
A: The value was “nuclear accumulation”.

Q: And the “effect of irradiation on the drug payload itself” value [4]?
A: Its value is “Neither MMAE nor doxorubicin themselves were substantially affected”.
